From US20230212193A1, “CRYSTALLINE RET INHIBITOR” (Loxo Oncology, Inc., priority 2020, published 2023)
≈ marks a conversion by molar mass, not a printed value. One block for each compound: values may come before it.

What was measured:
Type in all cases: physicochemical
[1] = hygroscopicity comparison of polymorphs; details: anhydrous polymorphs compared
[2] = solubility in organic solvents
[3] = equilibrium solubility in aqueous media and simulated fluids
Protocol: Solubility studies were completed on the crystal form of selpercatinib described herein. Aqueous media covering the physiological pH range and three simulated fluids were used in these studies. A sufficient quantity of solid compound to saturate the volume of solvent is weighed into a vessel with approximately 1 mL of the specified solvent. […] After equilibration, samples are transferred to centrifuge filters (Durapore PVDF, 0.22 µm pore size) and centrifuged for 3 min at 10,000 rpm, while maintaining 37° C. A 100 µL aliquot is then withdrawn from each sample and diluted with 900 µL of 50:50 acetonitrile:water. The pH of the filtrate is recorded using calibrated scientific pH equipment. The solution concentration of the compound is determined by HPLC using an Agilent Zorbax Bonus-RP 4.6 × 75 mm, 3.5 µm column under the following conditions:; temperature is 30° C.; injection volume is 4 µL; ultraviolet detection at 238 nm; flow rate is 1.5 mL/min; autosampler temperature is 25° C.; mobile phase A is 0.1% trifluoroacetic acid in water; and mobile phase B is 0.1% trifluoroacetic acid in acetonitrile. The HPLC gradient is as follows: 0 min -95% A, 5% B; 9.5 min - 23% A, 77% B; 12.1 min - 23% A, 77% B; 13 min - 5% A, 95% B; 16 min - 5% A, 95% B; 16.1 min - 95% A, 5% B; 20 min - 95% A, 5% B. The table below (Table 3) details the equilibrium solubility data and equilibrium pH, reported as a mean of duplicate sample preparations. The solid form of the residual solid from the centrifuge sample is verified by XRPD, as noted in Table 5.

[4] = accelerated stability study of Form B (open dish, temperature/humidity; XRPD and HPLC); parameters: key to Crystal Form (XRPD vs unstressed time 0 sample): NC: No Change
Text: Physical and chemical stability of Form B is an important attribute not only with respect to ensuring dissolution and solubility, but also for API and dosage form drug development and manufacturing operations (drying, storage, shipping transfers, etc.). Not all crystalline forms have the needed stability to enable drug development. A crystal form that is stable with respect to both temperature and humidity is desired. In order to assess the stability of the crystal form of selpercatinib an accelerated stability study iss carried out. Samples of Form B are weighed into 20 mL scintillation vials and placed (open dish) into bell jars with saturated salt solutions in ovens at the specified temperatures and for the specified times in Table 4. The Form B is analyzed before and after the accelerated stability study and is collected on a Bruker D8 Advance XRPD, equipped with a CuKα source (wavelength = 1.54056 Å) and a Linxeye detector, and operating at 40 kV and 40 mA, with a 0.2 mm divergence slit. Each sample is scanned from 4° to 30° 2θ in 0.02° steps at a rate of 0.2 seconds per step. Assay and impurities relative to the starting material are assessed using an Agilent 1260 HPLC System with Diode Array Detector. Samples are prepared at appropriate concentrations in 50/50 0.1%TFA in water/0.1%TFA in ACN and evaluated using the following HPLC conditions: Column Zorbax Bonus-RP, 75 × 4.6 mm i.d., 3.5 micron, mobile phase A is 0.1% TFA in water, mobile phase B is 0.1% TFA in ACN, gradient is 95% A at time 0, 23% A at time 9.5-12.1 minutes, 5% A at time 13-16 minutes, 95% A at time 16.1-20 minutes with a flow rate of 1.5 mL/min, a column temperature of 30° C., UV detection wavelength of 210 nm, and injection volume of 3 µL.

hygroscopicity [1]: slightly more hygroscopic than Form B | solubility in many organic solvents, including MEK, acetone, and many alcohol based solvents ([2]; 25° C.): poor | solubility ([2]; dichloromethane, dimethylsulfoxide and THF, organic solvent or mixture, 25° C., called moderate solubility, read-out: solubility in dichloromethane (DCM), dimethylsulfoxide (DMSO) and THF): 3000 to 30000 µg/mL (≈ 5710 to 57100 µM)
SMILES: COc1ccc(CN2C3CC2CN(c2ccc(-c4cc(OCC(C)(C)O)cn5ncc(C#N)c45)cn2)C3)cn1 [Form A, 6-(2-hydroxy-2-methylpropoxy)-4-(6-(6-((6-methoxypyridin-3-yl)methyl)-3,6-diazabicyclo[3.1.1]heptan-3-yl)pyridin-3-yl)pyrazolo[1,5-a]pyridine-3-carbonitrile]

Equilibrium pH ([3]; 0.01N HCl, 37° C., 24-hour equilibration): 3.634 | Equilibrium pH ([3]; 0.01 N NaOH, 37° C., 24-hour equilibration): 9.985 | Equilibrium pH ([3]; 0.1N HCl, 21.5° C. (ambient)): 1.297 | Equilibrium pH ([3]; FaSSIF, 37° C., 24-hour equilibration): 6.445 | Equilibrium pH ([3]; FeSSIF, 37° C., 24-hour equilibration): 4.928 | Equilibrium pH ([3]; SGF (simulated gastric fluid), 37° C., 24-hour equilibration): 2.644 | Equilibrium pH ([3]; Water, 37° C., 24-hour equilibration): 7.146 | solubility at 24 h ([3]; aqueous buffer, thermodynamic from solid, 0.01 N NaOH, 37° C., 24-hour equilibration): 1.1 µg/mL (≈ 2.09 µM) | solubility ([3]; aqueous media, 37 °C, thermodynamic from solid, indicated by the aqueous solubility results, read-out: intrinsic solubility): ~1 µg/mL (≈ 1.9 µM) | solubility at 24 h ([3]; citrate/phosphate buffer pH 4.0, aqueous buffer, thermodynamic from solid, pH 4.0 Citrate/Phosphate, 37° C., 24-hour equilibration): 712 µg/mL (≈ 1350 µM) | solubility at 24 h ([3]; pH 1.297, simulated gastric fluid, thermodynamic from solid, 0.1N HCl, measured at 21.5° C. (ambient), 24-hour equilibration): ≥ 10000 µg/mL | solubility at 24 h ([3]; pH 2.644, thermodynamic from solid, SGF (simulated gastric fluid), 37° C., 24-hour equilibration, retained solids non-crystalline by XRPD): 1440 µg/mL (≈ 2740 µM) | solubility at 24 h ([3]; pH 3.634, simulated gastric fluid, thermodynamic from solid, 0.01N HCl, 37° C., 24-hour equilibration): 4770 µg/mL (≈ 9080 µM) | Equilibrium pH ([3]; pH 4.0 Citrate/Phosphate, 37° C., 24-hour equilibration): 4.134 | Equilibrium pH ([3]; pH 4.5 Acetate (USP), 37° C., 24-hour equilibration): 4.496 | solubility at 24 h ([3]; pH 4.5 acetate buffer (USP), aqueous buffer, thermodynamic from solid, pH 4.5 Acetate (USP), 37° C., 24-hour equilibration): 169 µg/mL (≈ 322 µM) | Equilibrium pH ([3]; pH 6.0 Phosphate (USP), 37° C., 24-hour equilibration): 6.027 | solubility at 24 h ([3]; pH 6.0 phosphate buffer (USP), aqueous buffer, thermodynamic from solid, pH 6.0 Phosphate (USP), 37° C., 24-hour equilibration): 8.6 µg/mL (≈ 16.4 µM) | solubility at 24 h ([3]; pH 7.146, thermodynamic from solid, Water, 37° C., 24-hour equilibration): 3.6 µg/mL (≈ 6.85 µM) | Equilibrium pH ([3]; pH 7.5 Phosphate (USP), 37° C., 24-hour equilibration): 7.526 | solubility at 24 h ([3]; pH 7.5 phosphate buffer (USP), aqueous buffer, thermodynamic from solid, pH 7.5 Phosphate (USP), 37° C., 24-hour equilibration): 2.2 µg/mL (≈ 4.19 µM) | solubility at 24 h ([3]; thermodynamic from solid, FaSSIF (fasted-state simulated intestinal fluid, pH 6.5), 37° C., 24-hour equilibration): 9.6 µg/mL (≈ 18.3 µM) | solubility at 24 h ([3]; thermodynamic from solid, FeSSIF (fed-state simulated intestinal fluid, pH 5.0), 37° C., 24-hour equilibration): 228 µg/mL (≈ 433 µM) | Assay (%) in comparison to the unstressed (time 0) sample ([4]; 7 days, 40 °C, 11% RH): 99.2% | Crystal Form (XRPD vs unstressed time 0 sample) ([4]; 7 days, 40 °C, 11% RH): NC | Impurities (%) ([4]; 7 days, 40 °C, 11% RH): 0.10% | Assay (%) in comparison to the unstressed (time 0) sample ([4]; 7 days, 40 °C, 75% RH): 99.4% | Crystal Form (XRPD vs unstressed time 0 sample) ([4]; 7 days, 40 °C, 75% RH): NC | Impurities (%) ([4]; 7 days, 40 °C, 75% RH): 0.11% | Assay (%) in comparison to the unstressed (time 0) sample ([4]; 7 days, 50 °C, 30% RH): 99.4% | Crystal Form (XRPD vs unstressed time 0 sample) ([4]; 7 days, 50 °C, 30% RH): NC | Impurities (%) ([4]; 7 days, 50 °C, 30% RH): 0.09% | Assay (%) in comparison to the unstressed (time 0) sample ([4]; 7 days, 50 °C, 50% RH): 99.2% | Crystal Form (XRPD vs unstressed time 0 sample) ([4]; 7 days, 50 °C, 50% RH): NC | Impurities (%) ([4]; 7 days, 50 °C, 50% RH): 0.10% | Assay (%) in comparison to the unstressed (time 0) sample ([4]; 7 days, 70 °C, 11% RH): 100.7% | Crystal Form (XRPD vs unstressed time 0 sample) ([4]; 7 days, 70 °C, 11% RH): NC | Impurities (%) ([4]; 7 days, 70 °C, 11% RH): 0.09% | Assay (%) in comparison to the unstressed (time 0) sample ([4]; 7 days, 70 °C, 75% RH): 100.3% | Crystal Form (XRPD vs unstressed time 0 sample) ([4]; 7 days, 70 °C, 75% RH): NC | Impurities (%) ([4]; 7 days, 70 °C, 75% RH): 0.10% | Assay (%) in comparison to the unstressed (time 0) sample ([4]; 14 days, 40 °C, 11% RH): 99.9% | Crystal Form (XRPD vs unstressed time 0 sample) ([4]; 14 days, 40 °C, 11% RH): NC | Impurities (%) ([4]; 14 days, 40 °C, 11% RH): 0.09% | Assay (%) in comparison to the unstressed (time 0) sample ([4]; 14 days, 40 °C, 75% RH): 99.9% | Crystal Form (XRPD vs unstressed time 0 sample) ([4]; 14 days, 40 °C, 75% RH): NC | Impurities (%) ([4]; 14 days, 40 °C, 75% RH): 0.10% | Assay (%) in comparison to the unstressed (time 0) sample ([4]; 14 days, 50 °C, 30% RH): 100.5% | Crystal Form (XRPD vs unstressed time 0 sample) ([4]; 14 days, 50 °C, 30% RH): NC | Impurities (%) ([4]; 14 days, 50 °C, 30% RH): 0.09% | Assay (%) in comparison to the unstressed (time 0) sample ([4]; 14 days, 50 °C, 50% RH): 100.4% | Crystal Form (XRPD vs unstressed time 0 sample) ([4]; 14 days, 50 °C, 50% RH): NC | Impurities (%) ([4]; 14 days, 50 °C, 50% RH): 0.11% | Assay (%) in comparison to the unstressed (time 0) sample ([4]; 14 days, 70 °C, 11% RH): 99.3% | Crystal Form (XRPD vs unstressed time 0 sample) ([4]; 14 days, 70 °C, 11% RH): NC | Impurities (%) ([4]; 14 days, 70 °C, 11% RH): 0.10% | Assay (%) in comparison to the unstressed (time 0) sample ([4]; 14 days, 70 °C, 75% RH): 100.9% | Crystal Form (XRPD vs unstressed time 0 sample) ([4]; 14 days, 70 °C, 75% RH): NC | Impurities (%) ([4]; 14 days, 70 °C, 75% RH): 0.11% | stability under the testing conditions ([4]; accelerated stability study, conditions of Table 4): chemically and physically stable | Impurities (%) ([4]; time point 0 days, unstressed sample): 0.09% | solubility in anisole [2]: almost no solubility
SMILES: COc1ccc(CN2C3CC2CN(c2ccc(-c4cc(OCC(C)(C)O)cn5ncc(C#N)c45)cn2)C3)cn1 [Form B, 6-(2-hydroxy-2-methylpropoxy)-4-(6-(6-((6-methoxypyridin-3-yl)methyl)-3,6-diazabicyclo[3.1.1]heptan-3-yl)pyridin-3-yl)pyrazolo[1,5-a]pyridine-3-carbonitrile]
